Tests used:
[1] = test system: keratinocytes; test: cis-parinaric acid (PnA) assay of AMVN-induced phospholipid oxidation in live keratinocytes; assay type: cell-based, human
Procedure: Comparison of the Antioxidant Potency of ST-630 with that of Calcitriol and Alpha-Tocopherol in Live Keratinocytes Using the Cis-parinaric Acid (PnA) assay […].
Keratinocytes were incubated in the presence of a complex of PnA with human serum albumin (PnA-HSA) for up to […] to incorporate PnA into cellular phospholipids. […] The incorporation of PnA in the various phospholipids was differential and the amount of PnA incorporated was in the following order: PC>PEA>PI>PS>SPH>DPG. The constituent phospholipids were separated from the total lipid extract by HPLC. Major fluorescence peaks were identified using authentic phospholipids standards including DPG, PI, PEA, PS, PC and SPH.
To determine the effects of ST-630 on keratinocytes subjected to oxidative stress cell suspensions labeled with PnA were incubated with or without ST-630 (5-500 nM) in the dark at 37° C. for 1 hr in the presence of […] AMVN. Based on the known rate constant of AMVN decomposition under the experimental conditions employed (Niki, 1990), at 0.5 mM it can be estimated that 2.4 nanomoles (nmoles) of peroxyl radicals are generated per hour at 37° C. in each incubation containing 10^6 cells. Incubation of keratinocytes with AMVN for 1 hr induced significant oxidation of all the detected phospholipids.

[2] = test system: human keratinocyte cells; test: AMVN-induced hypodiploidy (apoptosis) in keratinocytes, flow cytometric analysis; assay type: cell-based
Text: Nucleus/DNA of cells treated with chemical or physical agents undergo changes primarily by the activation of the nucleases, before they lose the membrane integrity. Such changes are due to the loss of DNA or fragmentation of the nucleus into apoptotic bodies. Flow cytomeric analysis of a population of cells can reveal the appearance of a hypodiploid population and changes in the stages of the cell cycle.
AMVN induces changes in the cell cycle pattern and it can be modified either by calcitriol or ST-630. […] AMVN-derived peroxyl radicals primarily cause damage to the DNA and repair of DNA is accomplished during the G1 or G2 block. When keratinocytes were treated with various concentrations of ST-630 or calcitriol, and subsequently exposed to AMVN there was a considerable reduction in the level of hypodiploid cells. This effect was concentration-dependent. […] The highest concentration of calcitriol used, i.e. 500 nM reduced the hypodiploidy by 60%. […] 10 nM of ST-630 blocked the hypodiploidy by 60%.

[3] = test system: human neutrophils (PMNLs); test: oxidative burst (superoxide production, cytochrome c reduction) in human neutrophils; assay type: cell-based
Text: This example provides studies of oxidative burst and chemotaxis in human neutrophils. Oxidative (respiratory) burst in polymorphonuclear nuetrophils (PMN) is a major mechanism of defense against bacterial and/or viral pathogens. Oxidative burst is a complex process resulting in the generation by PMN of a huge amount of oxygen free radicals (superoxide and hydroxyl radicals) and chemically reactive substances—hydrogen peroxide and hypochlorite. The mechanism of cell activation involves such steps as increase of intracellular Ca^2+ concentration upon the interaction of activator, increasing the activity of protein kinase C, activation of NADPH oxidase with subsequent generation of superoxide radicals and hydrogen peroxide in the phagosomes and in the surrounding area, releasing and activation of myeloperoxidase and production of hypochlorite (HOCL).
The respiratory burst in PMNLs (isolated from fresh heparinized whole blood by dextran sedimentation) was initiated by the addition of N-formylmethionyl-leucyl-phenylalanine-methylester, FLPM (10^−7M), phorbol12,13-miristate, acetate, PMA (0.01 μg/ml) and opsonized zimozan (1.0 mg/ml). Superoxide production was assayed by the superoxide dismutase-22 inhibitable reduction of cytochrome c. […]

[4] = test system: human neutrophils; test: chemotaxis in human neutrophils, multiwell chamber with FLPM; assay type: cell-based; conditions: higher concentrations of FLPM as chemotactic factor
Text: For chemotaxis assay, chemotactic solution (medium 199 containing 0.5% BSA and FLPM) and multiwell chamber were used. The numbers of migrated neutrophils for different concentrations of FLPM (as a chemotactic factor) were within the usually observable range (see Table 4 in the Appendix). […] Despite this, the data are consistent with the effects of these compounds on superoxide release. Both ST-630 and calcitriol appear to be inhibitory when higher concentrations of FLPM were used.

[5] = test system: Propionibacterium acnes; test: antibacterial disc inhibition zone test; assay type: cell-based; conditions: 6 mm filter paper discs, 48 hr at 36° C.
Procedure: Propionibacterium acnes, the target of inflammation in acne, was tested for its sensitivity to ST-630 and calcitriol using the inhibition method standardly employed for assessment of antibiotic efficiency. The strain (lyophilized) P. acnes (batch # 96-09SV) was received from the US type culture collection (Rockville, Md.). It was revitalized in 0.5 ml freshly boiled (10 min) reinforced Clostridial medium. ST-630 or calcitriol dissolved in 5.0 μl DMSO were applied onto the top of sterilized discs made of filter paper (6 mm). Erythromycin (15 μg) and DMSO (5.0 μl) were used as controls (positive and negative, respectively). The plates were incubated for 48 hr at 36° C. and the diameter of the inhibition zone was measured. […] The antibacterial activity of ST-630 at concentration 12.8 μg was about 2.7-fold lower than that of 15 μg of erythromycin. We conclude that ST-630 (but not calcitriol) exerts a significant inhibitory antibacterial activity towards P. acnes.

[6] = test system: cultured human keratinocytes; test: 3H-thymidine incorporation into keratinocyte DNA (proliferation); assay type: cell-based; conditions: 42 h and 66 h after initial dosing with 10^-8 M
Procedure: Two experimental approaches were performed to assess the effect of ST-630 on the proliferation of cultured human keratinocytes. The first one was the ^3H-thymidine incorporation experiments that involved the use of a radiolabeled nucleotide which is specifically found in newly synthesized DNA molecules only. The second approach used in this study was the basal cell count. Although it is tedious, the second method is a more definitive way to determine cellular proliferation. Our results clearly establish the potency and the long-lasting effects of ST-630 in inhibiting cellular proliferation as determined by ^3H-thymidine and basal cell count.

[7] = test system: cultured keratinocytes; conditions: cited from earlier work

Row | Compound | concentration giving maximum antioxidant effectiveness/protection against AMVN-induced oxidation ([1]; PnA-labeled keratinocytes, 0.5 mM AMVN, 1 hr, 37° C.) | concentration-dependency of the protective effect ([1]; PnA-labeled keratinocytes, AMVN) | reduction of AMVN-induced hypodiploidy ([2]; 10 nM) | effect on cell cycle ([2]; 10 nM, then AMVN) | reduction of AMVN-induced hypodiploidy ([2]; 500 nM) | superoxide release with known stimulants (FLPM, PMA, opsonized zymosan) [3] | effect on chemotaxis [4] | antibacterial activity (inhibition zone) [5] | inhibitory (antiproliferative) activity with time [6] | metabolism in cultured keratinocytes [7] | antioxidant action compared with the other compounds ([1]; concentrations 250 and 500 nm)
1 | C=C1/C(=C\C=C2/CCC[C@]3(C)[C@@H]([C@H](C)CCCC(C)(C)O)CC[C@@H]23)C[C@@H](O)C[C@@H]1O [calcitriol, reference compound] | 25 to 50 nM | two-phase protection pattern | 40% | blocked the cells at the G2/M phase | 60% | act to prime for supertoxide release | inhibitory | Neither DMSO nor calcitriol exerted any antibacterial activity | diminished with time | rapidly metabolized | –
2 | Cc1c(C)c2c(c(C)c1O)CC[C@@](C)(CCC[C@H](C)CCC[C@H](C)CCCC(C)C)O2 [vitamin E, Alpha-Tocopherol, reference compound] | – | – | – | – | – | – | – | – | – | – | comparable to that of ST-630

Source: patent US20020042403A1, “Use of vitamin D analogs to treat conditions related to increased oxidative stress” (priority 1998, published 2002)
